The values that follow are results of earlier work, collected in patent publication US20250241354A1, “ORAL PRODUCTS” (RAI STRATEGIC HOLDINGS, INC., priority 2024, published 2025).

The conditions of the data set: in words.

For the compound `CC(/C=C/C=C(C)/C=C/C(=O)O)=C\C=C\C=C(C)\C=C\C=C(C)\C=C\C(=O)O` (stereo in doubt) [norbixin, (2E,4E,6E,8E,10E,12E,14E,16E,18E)-4,8,13,17-tetramethylicosa-2,4,6,8,10,12,14,16,18-nonaenedioic acid], the solubility result is listed as “water-soluble”.
As for `COC(=O)/C=C/C(C)=C\C=C\C(C)=C\C=C\C=C(C)\C=C\C=C(C)\C=C\C(=O)O` [bixin, (2E,4E,6E,8E,10E,12E,14E,16Z,18E)-20-methoxy-4,8,13,17-tetramethyl-20-oxoicosa-2,4,6,8,10,12,14,16,18-nonaenoic acid], the solubility result is “soluble in fats and alcohols but insoluble in water”.
